Measurements: US20090053138A1, “Stabilized Aptamers to Platelet Derived Growth Factor and their Use as Oncology Therapeutics” (priority 2002, published 2009)
Strand notation (5' to 3'): a small letter for the sugar, then the base; units joined by * are phosphorothioate-linked, units joined directly phosphodiester-linked; [ ] holds rarer units or linkages, { } end groups; capitals alone tell only the bases. [HEG] = hexaethylene glycol spacer joining aptamer pieces; [invdT] = inverted (3'-3') thymidine; d = 2'-deoxy (DNA); m = 2'-O-methyl

Assays:
PDGF BB [1] = target: T1, PDGF BB (Homo sapiens, UniProt P01127); assay: ERK phosphorylation assay in 3T3 cells; type: cell-based, mouse; design: purchased R&D Systems, Minneapolis, Minn; conditions: 10 ng/ml PDGF-BB, 30 minutes
T1 sequence (P01127 82-190 limits assumed): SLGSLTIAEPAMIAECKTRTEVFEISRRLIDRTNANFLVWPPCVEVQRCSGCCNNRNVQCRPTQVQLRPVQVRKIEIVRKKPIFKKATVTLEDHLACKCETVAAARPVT
Protocol: ERK phosphorylation was used to test whether ARC124 (SEQ ID NO:11) retained its functionality after the incorporation of CpG motifs into the aptamer sequence. One hundred and fifty thousand 3T3 cells (a mouse fibroblast cell line which contains PDGF-R) were plated into an appropriate number of wells on a 12 well plate one day prior to the experiment and serum starved in 0.5% FBS overnight. Cells were treated with 10 ng/ml PDGF-BB (R&D Systems, Minneapolis, Minn.) in the presence or absence of CpG-island containing PDGF aptamers for 30 minutes. […] Protein concentration in cell lysates was determined using BIO-RAD protein assay reagent according to manufacturer's recommendations (Bio-Rad, Hercules, Calif.). Lysates were prepared by adding NuPage LDS Sample Buffer 4× with 0.1M DTT to a final concentration of 1× (invitrogen, Carlsbad, Calif.) and incubated at 70° C. for 7 minutes. Forty micrograms of total protein was loaded into each well of a NuPage 10%, Bis-Tris gel (Invitrogen, Carlsbad, Calif.). The gel was run at 100 mAmp for 1 hour. Gel was then transferred to a HyBond ECL nitrocellulose membrane (Amersham, Piscataway, N.J.) at 250 mAmp for 3 hours. After transfer, the nitrocellulose was blocked with 5% BSA (Sigma, St. Louis, Mo.) in PBS for one hour at room temperature. The nitrocellulose membrane was incubated with a p44/42 MAP Kinase antibody overnight at 4° C. […]

VEGF = target: T2, VEGF (Homo sapiens, UniProt P15692); assay: Dot-blot binding assay, VEGF
T2 sequence (P15692 27-191 isoform P15692-4): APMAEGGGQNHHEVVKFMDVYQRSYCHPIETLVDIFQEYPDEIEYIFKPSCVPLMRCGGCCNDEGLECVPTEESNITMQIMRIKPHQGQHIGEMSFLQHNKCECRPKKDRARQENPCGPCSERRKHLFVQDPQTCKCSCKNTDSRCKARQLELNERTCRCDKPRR
Protocol: (§1) Binding data for the constituent aptamers and the multivalent aptamers were collected by dot-blot assays in which radio-labeled aptamer is incubated with protein target and then forced through a sandwich of nitrocellulose over nylon and the results shown in FIG. 22. Protein-associated radio-label is captured on the nitrocellulose membrane while the balance of the radio-label is captured on the nylon membrane. The radio-label data is collected on a phosphorimaging plate. […] The multivalent aptamers TK.131.012.A (SEQ ID NO. 9) and TK.131.012.B (SEQ ID NO. 10) were made synthetically.

PDGF BB [2] = target: T1, PDGF BB; assay: Dot-blot binding assay, PDGF BB
Protocol: as §1

PDGF-BB [3] = target: T3, PDGF-BB (Rattus norvegicus, UniProt Q05028); assay: Competition binding assay, rat PDGF-BB
T3 construct: purchased PeproTech, Rocky Hill, N.J
T3 sequence (Q05028 66-174 limits assumed): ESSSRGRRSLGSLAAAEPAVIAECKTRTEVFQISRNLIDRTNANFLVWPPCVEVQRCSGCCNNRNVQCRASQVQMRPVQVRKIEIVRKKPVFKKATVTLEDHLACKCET
Description: (§2) Next, a study was done to determine whether ARC126 cross reacted with PDGF-BB of species other than human. Competition binding assays were set up by dot blot analysis, as previously described, using human, rat, and mouse PDGF-BB (PeproTech, Rocky Hill, N.J.).

PDGF BB [4] = target: T1, PDGF BB; assay: 3T3 cell proliferation assay (PDGF-BB induced); type: cell-based, rat; design: purchased PeproTech, Rocky Hill, N.J; conditions: after lyophilization and storage at −20 degrees celsius for 2 years
Protocol: 3T3 cells, a rat fibroblast cell line (ATCC, Manassas, Va.), were plated 3,000 cells/well in a 96 well plate one day prior to the start of the assay in 100 ul DMEM/10% FCS. The following day, cells were washed once with straight DMEM and then 75 ul DMEM/0.8% FCS was added to each well. […] Cells were incubated for 3 days. Following incubation 10 ul MTT (Promega, Madison, Wis.) was added to each well and incubated for an additional 1.5 hours. Media was then removed, 200 ul Isopropanol (2-propanol) was added to each well, cells were re-suspended thoroughly and absorbance at 570 nm was read on a 96 well plate reader.
(§3) 3T3 cells, which are derived from a rat fibroblast cell line (ATCC, Manassas, Va.), were used in a proliferation assay to test potency of modified ARC513 aptamers. 3T3 fibroblast cells have PDGF receptors on their cell-surface and respond to mitogen, e.g., PDGF stimulation by proliferation. The assay was performed as follows: 3T3 cells were plated 3,000 cells/well in a 96 well plate one day prior to the start of the assay in 100 ul DMEM/10% FCS. The following day, cells were washed once with straight DMEM and then 75 ul DMEM/0.8% FCS was added to each well. Then 25 ul of PDGF-BB (PeproTech, Rocky Hill, N.J.) at a 50 ng/ml final concentration was added to each well +/− aptamer condition to be tested. […] The functional PDGF aptamer dilutions usually consisted of 6 points in 2-fold serial dilutions.
(§4) Cells were incubated for 3 days. Following incubation 10 ul MTT (Promega, Madison, Wis.) was added to each well and incubated for an additional 1.5 hours. Media was removed, 200 μl Isopropanol (2-propanol) was added to each well, cells were re-suspended thoroughly and absorbance at 570 nm was read on a 96 well plate reader. The present example depicts the potency comparison of PDGF aptamer ARC: 513 to that of ARC 513 variants.
The 3T3 proliferation assay previously described was used to test potency of all PEG conjugated ARC513 variants described immediately above. The assay was performed as follows: 3T3 cells were plated 3,000 cells/well in a 96 well plate one day prior to the start of the assay in 100 ul DMEM/10% FCS. The following day, cells were washed once with straight DMEM and then 75 ul DMEM/0.8% FCS was added to each well. Then 25 ul of PDGF-BB (PeproTech, Rocky Hill, N.J.) at a 50 ng/ml final concentration was added to each well +/− aptamer condition to be tested. […] The functional PDGF aptamer dilutions usually consisted of 6 points in 2-fold serial dilutions.
as §4, with “ARC513” for “ARC: 513”, “PEGylated ARC513 aptamers.” for “ARC 513 variants.”
as §3, with “3T3” for “3T3 cells, which are derived from a rat fibroblast cell line (ATCC, Manassas, Va.), were used in a proliferation assay to test potency of modified ARC513 aptamers. 3T3”, “100 μl” for “100 ul”
as §4, with “[…]” for “μl”, “reader.” for “reader. The present example depicts the potency comparison of PDGF aptamer ARC: 513 to that of ARC 513 variants.”

PDGF-BB [5] = target: T4, PDGF-BB (Mus musculus, UniProt P31240); assay: Competition binding assay, mouse PDGF-BB
T4 construct: purchased PeproTech, Rocky Hill, N.J
T4 sequence (P31240 82-190 limits assumed): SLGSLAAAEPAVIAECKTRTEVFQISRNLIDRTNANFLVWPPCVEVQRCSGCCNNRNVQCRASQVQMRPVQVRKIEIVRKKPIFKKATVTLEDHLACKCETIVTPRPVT
Description: as §2

PDGF-AA = target: T5, PDGF-AA (Homo sapiens, UniProt P04085); assay: Competition binding assay, PDGF-AA
T5 construct: purchased PeproTech, Rocky Hill, N.J
Description: as §2
(§5) The competitive binding assay previously described was used to determine the in vitro binding affinity and selectivity of ARC594 for different PDGF isoforms. Different concentrations of unlabeled, competitor aptamer were titrated in separate reactions against a fixed (<0.1 nM) amount of ^32P-radiolabeled ARC594 in buffer containing a fixed amount (0.1 nM) of the aptamer's cognate target (PDGF-BB; PeproTech). UnPEGylated version of ARC594 was radiolabeled at the 5′ terminus by incubation with γ-^32P-ATP (ICN) and polynucleotide kinase (NEB). Binding reactions were carried out in phosphate-buffered saline (Cellgro) containing 0.2 mg/mL bovine serum albumin (NEB) and 0.02 mg/mL tRNA (Sigma). […] The data was expressed as the ratio of the counts per minute (CPM) of radioactivity due to ^32P-ARC594 bound to PDGF BB on the nitrocellulose membrane (CPMnitrocellulose or CPMnc) over the total CPM (CPMtotal=CPMnitrocellulose+CPMnylon).

PDGF AB = PDGF AB (Homo sapiens, UniProt P01127); assay: Competition binding assay, PDGF-AB; design: purchased PeproTech, Rocky Hill, N.J
Chain of PDGF AB (P01127 82-190 limits assumed, other chains not shown): as the sequence (P01127 82-190 limits assumed) above
Description: as §2, §5

PDGF BB [6] = target: T1, PDGF BB; assay: Competition binding assay, PDGF-BB; design: purchased PeproTech, Rocky Hill, N.J; conditions: human PDGF-BB; read-out: Kd
Protocol: Binding reactions were carried out in phosphate-buffered saline (Cellgro, Herndon, Va.) containing 0.2 mg/mL bovine serum albumin (NEB) and 0.02 mg/mL tRNA (Sigma, St. Louis, Mo.). The reactions were equilibrated for a period of 15-30 minutes at room temperature, then filtered through a sandwich of nitrocellulose (Protran membrane, Perkin-Elmer, Boston, Mass.) and nylon (Hybond membrane, Amersham, Piscataway, N.J.) membranes to separate target bound aptamer from free aptamer.
as §2
as §5, with “(Sigma). The reactions were equilibrated for a period of 15-30 minutes at room temperature, then filtered through a sandwich of nitrocellulose (Protran membrane, Perkin-Elmer) and nylon (Hybond membrane, Amersham) membranes to separate target bound aptamer from free aptamer.” for “(Sigma).”

In the case of “LongCpGARC124: PDGF aptamer ARC124 with CpG motif appended (SEQ ID NO:21) (dG*dT*dG*dA*dA*dC*dG*dT*dT*dC*dG*dA*dG*dCdAdGdGdCdTdAdCdGdGdCdAdCdGdTdAdGdAdGdCdAdTdCdAdCdCdAdTdGdAdTdCdCdT*dG*dC[invdT]; further chemistry not fully specified)”, the “phosphorylation of ERK” value (PDGF BB [1]) is reported as “can block phosphorylation of ERK”.

“TK.131.012.A: PDGF/VEGF binding multivalent aptamer (SEQ ID NO:9) (CAGGCTACGAUGCAGUUUGAGAAGUCGCGCAUCGTAGAGCATCAGAAATGATCCTG; sugars from the 5' end d9 m23 d24, 3' [invdT], backbone not given here; further chemistry not fully specified)” was tested, and the Kd (VEGF) was ~10 nM and the Kd (PDGF BB [2]) was ~10 nM.

For “5′-(SEQ ID NO: 1)-HEG-(SEQ ID NO:2)-HEG-(SEQ ID NO:3)-3′-dT-3′ (chain 1 CAGGCUACG; chain 2 CGTAGAGCAUCA; chain 3 TGATCCUG; piece 1: 2'-fluoro at 6, 8, 2'-O-methyl at 9, 3' [HEG], other sugars and backbone not given here; piece 2: 2'-O-methyl at 5, 7, 12, 2'-fluoro at 10, 11, 3' [HEG], other sugars and backbone not given here; piece 3: 2'-fluoro at 5, 6, 7, 2'-O-methyl at 8, 3' [invdT], other sugars and backbone not given here) [ARC126]”, the “affinity for rat PDGF-BB” value (PDGF-BB [3]) was “equal affinity”, the Kd (PDGF-BB [3]; read-out: affinity for rat PDGF-BB) was ~0.1 nM and the “potency of legacy aptamers vs newly synthesized” value (PDGF BB [4]) was “just as potent”. The “affinity for mouse PDGF-BB” value (PDGF-BB [5]) was “equal affinity”, the Kd (PDGF-BB [5]; read-out: affinity for mouse PDGF-BB) was ~0.1 nM and the “binding to PDGF-AA” value (PDGF-AA) was “does not bind”. The Kd (PDGF AB) was ~0.1 nM, the Kd (PDGF BB [2]; entirely DNA ARC126 used in the multivalent aptamer) was ~0.1 nM and the Kd (PDGF BB [6]) was ~0.1 nM.

“TK.131.012.B: PDGF/VEGF binding multivalent aptamer (SEQ ID NO: 10) (CAGGCTACGUGCAGUUUGAGAAGUCGCGCACGTAGAGCATCAGAAATGATCCTG; sugars from the 5' end d9 m21 d24, 3' [invdT], backbone not given here; further chemistry not fully specified)” gave a Kd (VEGF) of ~5 nM and a Kd (PDGF BB [2]) of ~10 nM.

“CpGARC124short: PDGF aptamer ARC124 with CpG motif appended (SEQ ID NO:20) (AACGTTCGAGCAGGCTACGGCACGTAGAGCATCACCATGATCCTGC; synthetic aptamer; (1)..(11) phosphorothiate backbone between nucleotides 1-11; (44)..(46) phosphorothiate backbone between nucleotides 44-46)” was tested, and the “phosphorylation of ERK” value (PDGF BB [1]) was “can block phosphorylation of ERK”.

Work on “5′-mAmUmGmCmAmGmUmUmUmGmAmGmAmAmGmUmCmGmCmGmCmAmU-[3T]-3′ (SEQ ID NO: 7) (AUGCAGUUUGAGAAGUCGCGCAU; all 2'-O-methyl, [invdT] at 3' end, backbone not given here) [ARC245]” yielded a Kd (VEGF) of ~2 nM.
